From PubChem BioAssay AID2060509 (Molecular Pharmacology Branch, DTP, NCI, 2025)

Test system: 485176-168-R4-J1-PDC spheroids with HUVEC/MSC, viability
Assay: Anticancer human tumor 485176-168-R4-J1-PDC patient-derived pancreatic adenocarcinoma cell line growth inhibition [GQUAD]
Conditions: for IC50: curve of first compound; for viability, T/C: stronger effect = lower value
In short: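 Multi-cell-type spheroids of tumor cells with HUVEC and mesenchymal stem cells, treated with drug combinations. Concentrations descend in half-log steps from near clinical Cmax, or from 10 microM where Cmax is unknown; viability read-out.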

[1] = second compound 0.0316 µM, first compound 0.0316 µM
[2] = second compound 0.0316 µM, first compound 0.1 µM
[3] = second compound 0.0316 µM, first compound 0.316 µM
[4] = second compound 0.0316 µM, first compound 1 µM
[5] = second compound 0.0316 µM, first compound 3.16 µM
[6] = second compound 0.0316 µM, first compound 10 µM
[7] = second compound 0.1 µM, first compound 0.0316 µM
[8] = second compound 0.1 µM, first compound 0.1 µM
[9] = second compound 0.1 µM, first compound 0.316 µM
[10] = second compound 0.1 µM, first compound 1 µM
[11] = second compound 0.1 µM, first compound 3.16 µM
[12] = second compound 0.1 µM, first compound 10 µM
[13] = second compound 0.316 µM, first compound 0.0316 µM
[14] = second compound 0.316 µM, first compound 0.1 µM
[15] = second compound 0.316 µM, first compound 0.316 µM
[16] = second compound 0.316 µM, first compound 1 µM
[17] = second compound 0.316 µM, first compound 3.16 µM
[18] = second compound 0.316 µM, first compound 10 µM
[19] = second compound 1 µM, first compound 0.0316 µM
[20] = second compound 1 µM, first compound 0.1 µM
[21] = second compound 1 µM, first compound 0.316 µM
[22] = second compound 1 µM, first compound 1 µM
[23] = second compound 1 µM, first compound 3.16 µM
[24] = second compound 1 µM, first compound 10 µM
[25] = second compound 3.16 µM, first compound 0.0316 µM
[26] = second compound 3.16 µM, first compound 0.1 µM
[27] = second compound 3.16 µM, first compound 0.316 µM
[28] = second compound 3.16 µM, first compound 1 µM
[29] = second compound 3.16 µM, first compound 3.16 µM
[30] = second compound 3.16 µM, first compound 10 µM
[31] = second compound 10 µM, first compound 0.0316 µM
[32] = second compound 10 µM, first compound 0.1 µM
[33] = second compound 10 µM, first compound 0.316 µM
[34] = second compound 10 µM, first compound 1 µM
[35] = second compound 10 µM, first compound 3.16 µM
[36] = second compound 10 µM, first compound 10 µM
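Note: spheroids exposed to compounds for seven days before readout.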
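Throughout, for viability, T/C: percent viability relative to DMSO vehicle control wells as 100%.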

C=CC(=O)N1CCN(c2nc(=O)n(-c3c(C)ccnc3C(C)C)c3nc(-c4c(O)cccc4F)c(F)cc23)C(C)C1 (centres undefined) + Cc1cnc(CNC(=O)c2c(=O)c3ccc(N4CCCN(C)CC4)nc3n3c2sc2ccccc23)cn1 was tested, and the IC50 (second compound 0.0316 µM) was over 10 µM, the IC50 (second compound 0.1 µM) was over 10 µM and the IC50 (second compound 0.316 µM) was over 10 µM. For the same compound, the IC50 (second compound 1 µM) was over 10 µM, the IC50 (second compound 3.16 µM) was under 0.0316 µM and the IC50 (second compound 10 µM) was under 0.0316 µM. It also gave a viability, T/C [1] of 108%, a viability, T/C [2] of 97.2% and a viability, T/C [3] of 111%. It also gave a viability, T/C [4] of 97.7%, a viability, T/C [5] of 114% and a viability, T/C [6] of 110%. It also gave a viability, T/C [7] of 67.5%, a viability, T/C [8] of 81.6% and a viability, T/C [9] of 86.7%. The viability, T/C [10] was 92.4%, the viability, T/C [11] was 96.4% and the viability, T/C [12] was 92.5%. The viability, T/C [13] was 63.8%, the viability, T/C [14] was 62.5% and the viability, T/C [15] was 83.7%. The viability, T/C [16] was 72.1%, the viability, T/C [17] was 81.6% and the viability, T/C [18] was 79.3%. The viability, T/C [19] was 58%, the viability, T/C [20] was 62.1% and the viability, T/C [21] was 80.1%. The viability, T/C [22] was 52.2%, the viability, T/C [23] was 61.1% and the viability, T/C [24] was 60.7%. The viability, T/C [25] was 49%, the viability, T/C [26] was 45.7% and the viability, T/C [27] was 46.9%. For the same compound, the viability, T/C [28] was 50.1%, the viability, T/C [29] was 54.6% and the viability, T/C [30] was 49.5%. For the same compound, the viability, T/C [31] was 43.6%, the viability, T/C [32] was 47.7% and the viability, T/C [33] was 51%. The viability, T/C [34] was 43.7%, the viability, T/C [35] was 49% and the viability, T/C [36] was 50.3%.

Work on Cc1cccc(N(C)C(=O)C2C(O)CCN2c2nc(C)cc(C(F)(F)F)c2C#N)c1 (centres undefined) + Cc1cnc(CNC(=O)c2c(=O)c3ccc(N4CCCN(C)CC4)nc3n3c2sc2ccccc23)cn1 yielded an IC50 (second compound 0.0316 µM) of over 10 µM, an IC50 (second compound 0.1 µM) of over 10 µM and an IC50 (second compound 0.316 µM) of over 10 µM. The IC50 (second compound 1 µM) was over 10 µM, the IC50 (second compound 3.16 µM) was under 0.0316 µM and the IC50 (second compound 10 µM) was under 0.0316 µM. The viability, T/C [1] was 91.9%, the viability, T/C [2] was 100% and the viability, T/C [3] was 89%. It also gave a viability, T/C [4] of 97.2%, a viability, T/C [5] of 96% and a viability, T/C [6] of 98.3%. The viability, T/C [7] was 64.2%, the viability, T/C [8] was 78% and the viability, T/C [9] was 78.6%. The viability, T/C [10] was 67.9%, the viability, T/C [11] was 65.8% and the viability, T/C [12] was 67.8%. For the same compound, the viability, T/C [13] was 66.8%, the viability, T/C [14] was 64% and the viability, T/C [15] was 56.3%. For the same compound, the viability, T/C [16] was 60.9%, the viability, T/C [17] was 66.6% and the viability, T/C [18] was 60.5%. For the same compound, the viability, T/C [19] was 52%, the viability, T/C [20] was 45.5% and the viability, T/C [21] was 53.9%. The viability, T/C [22] was 45.9%, the viability, T/C [23] was 57.1% and the viability, T/C [24] was 47.5%. The viability, T/C [25] was 44%, the viability, T/C [26] was 47.9% and the viability, T/C [27] was 39.5%. It also gave a viability, T/C [28] of 43.3%, a viability, T/C [29] of 47.8% and a viability, T/C [30] of 40.7%. It also gave a viability, T/C [31] of 42.7%, a viability, T/C [32] of 39% and a viability, T/C [33] of 43.4%. It also gave a viability, T/C [34] of 38.1%, a viability, T/C [35] of 45.7% and a viability, T/C [36] of 40.6%.
